Measurements: patent US9440950B2, “Arginine methyltransferase inhibitors and uses thereof” (Epizyme, Inc., priority 2013, dated 2016)

Molecular target: T1, Human CARM1 (PRMT4) (Homo sapiens, UniProt Q86X55)
T1 construct: Flag-CARM1-His; made in house; host or cells: HEK 293F cells (BacMam virus, pFastBacMam)
T1 sequence (Q86X55 1-585 isoform Q86X55-1): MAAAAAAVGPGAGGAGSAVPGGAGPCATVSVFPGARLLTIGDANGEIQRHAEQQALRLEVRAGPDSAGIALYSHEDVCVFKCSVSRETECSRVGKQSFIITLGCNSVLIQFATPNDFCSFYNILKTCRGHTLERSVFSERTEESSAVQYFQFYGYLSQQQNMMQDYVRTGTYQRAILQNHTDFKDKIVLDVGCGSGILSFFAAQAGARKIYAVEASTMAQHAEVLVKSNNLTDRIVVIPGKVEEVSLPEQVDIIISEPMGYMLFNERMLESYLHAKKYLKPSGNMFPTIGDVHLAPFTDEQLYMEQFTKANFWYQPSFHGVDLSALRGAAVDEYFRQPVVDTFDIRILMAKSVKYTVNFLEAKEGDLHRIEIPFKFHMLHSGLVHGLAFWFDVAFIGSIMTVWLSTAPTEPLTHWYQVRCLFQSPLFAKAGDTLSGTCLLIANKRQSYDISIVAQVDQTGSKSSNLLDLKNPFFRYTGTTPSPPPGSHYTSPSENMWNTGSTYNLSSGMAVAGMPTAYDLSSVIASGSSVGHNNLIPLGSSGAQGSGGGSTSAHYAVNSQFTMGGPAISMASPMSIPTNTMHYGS
Assay: CARM1 Biochemical Assay
Conditions: peptide substrate, 3H-SAM Flashplate assay
Source text: S-adenosylmethionine (SAM), S-adenosylhomocysteine (SAH), bicine, Tween20, dimethylsulfoxide (DMSO), bovine skin gelatin (BSG), sodium butyrate and Tris(2-carboxyethyl)phosphine hydrochloride solution (TCEP) were purchased from Sigma-Aldrich at the highest level of purity possible. ^3H-SAM was purchase from American Radiolabeled Chemicals with a specific activity of 80 Ci/mmol. 384-well streptavidin Flashplates were purchased from PerkinElmer.
Peptide representative of human histone H3 residues 16-30 was synthesized with an N-terminal linker-affinity tag motif and a C-terminal amide cap by 21st Century Biochemicals. The peptide was purified by high-performance liquid chromatography (HPLC) to greater than 95% purity and confirmed by liquid chromatography mass spectrometry (LC-MS). The sequence was Biot-Ahx-[…]-amide and contained a monomethylated arginine at position 26 (SEQ ID NO.:14).
Human CARM1 (PRMT4) (NM_199141.1) transcript clone was amplified from an HEK 293 cDNA library, incorporating a flanking 5′ sequence encoding a FLAG tag ([…]) (SEQ ID NO.:6) fused directly to Ala 2 of CARM1 and 3′ sequence encoding a hexa His sequence ([…]) (SEQ ID NO.:15) fused directly to Ser 608. The gene sequence encoding isoform1 containing a deletion of amino acids 539-561 was amplified subsequently and subcloned into pFastBacMam (Viva Biotech).
Recombinant baculovirus were generated according to Bac-to-Bac kit instructions (Life Technologies). […] Infections were carried out at 37° C. for 48 hours, harvested by centrifugation, and stored at −80° C. for purification.
Column was washed with 500 mM NaCl in buffer A and Flag-CARM1-His was eluted with 200 ug/ml FLAG peptide in buffer A. Pooled fractions were dialyzed in 20 mM Tris, 150 mM NaCl, 5% glycerol and 1 mM DTT, pH 7.8. The purity of recovered protein was 94.
General Procedure for CARM1 Enzyme Assays on Peptide Substrates.
The assays were all performed in a buffer consisting of 20 mM Bicine (pH=7.6), 1 mM TCEP, 0.005% BSG, and 0.002% Tween 20, prepared on the day of use. Compounds in 100% DMSO (1 ul) were spotted into a polypropylene 384-well V-bottom plates (Greiner) using a Platemate Plus outfitted with a 384-channel head (Thermo Scientific). DMSO (1 ul) was added to Columns 11, 12, 23, 24, rows A-H for the maximum signal control and 1 ul of SAH, a known product and inhibitor of CARM1, was added to columns 11, 12, 23, 24, rows I-P for the minimum signal control. A cocktail (40 ul) containing the CARM1 enzyme was added by Multidrop Combi (Thermo-Fisher). The compounds were allowed to incubate with CARM1 for 30 min at room temperature, then a cocktail (10 ul) containing ^3H-SAM and peptide was added to initiate the reaction (final volume=51 ul). The final concentrations of the components were as follows: CARM1 was 0.25 nM, ^3H-SAM was 30 nM, peptide was 250 nM, SAH in the minimum signal control wells was 1 mM, and the DMSO concentration was 2%. The assays were stopped by the addition of non-radiolabeled SAM (10 ul) to a final concentration of 300 uM, which dilutes the ^3H-SAM to a level where its incorporation into the peptide substrate is no longer detectable. 50 ul of the reaction in the 384-well polypropylene plate was then transferred to a 384-well Flashplate and the biotinylated peptides were allowed to bind to the streptavidin surface for at least 1 hour before being washed once with 0.1% Tween20 in a Biotek ELx405 plate washer. The plates were then read in a PerkinElmer TopCount plate reader to measure the quantity of ^3H-labeled peptide bound to the Flashplate surface, measured as disintegrations per minute (dpm) or alternatively, referred to as counts per minute (cpm).
Where dpm=disintegrations per minute, cmpd=signal in assay well, and min and max are the respective minimum and maximum signal controls.
Where top and bottom are the normally allowed to float, but may be fixed at 100 or 0 respectively in a 3-parameter fit. […]

Compound	IC50 [µM]
CN(CCN)Cc1c[nH]nc1-c1cncc(S(C)(=O)=O)c1 [Compound 4]	≥ 10
Cc1cncc(-c2n[nH]cc2CN(C)CCN)c1 [Compound 6]	≥ 10
CN(CCN)Cc1c[nH]nc1-c1cncc(F)c1 [Compound 7]	1.01 to 3
CN(CCN)Cc1c[nH]nc1-c1cccnc1 [Compound 8]	3.01 to 10
CN(CCN)Cc1c[nH]nc1-c1ccncc1 [Compound 9]	3.01 to 10
Cc1cc(-c2n[nH]cc2CN(C)CCN)cnc1Cl [Compound 10]	0.101 to 1

The remaining lines, values ahead:

IC50 [µM]	Compound
1.01 to 3	CNCCN(C)Cc1c[nH]nc1-c1cccnc1 [Compound 1]
≥ 10	CNCCN(C)Cc1c[nH]nc1-c1ccc(O)nc1 [Compound 2]
3.01 to 10	CNCCN(C)Cc1c[nH]nc1-c1ccc(N)nc1 [Compound 3]
3.01 to 10	COc1ccc(-c2n[nH]cc2CN(C)CCN)cn1 [Compound 5]
